{"source": "patent US20050130134A1", "about": "“Means and methods for monitoring non-nucleoside reverse transcriptase inhibitor antiretroviral therapy and guiding therapeutic decisions in the treatment HIV-AIDS” (ViroLogic, Inc., priority 2000, published 2005)", "key": {"[1]": {"tested_on": "patient 780 virus (RT K103N, P225H)", "assay": "Phenotypic susceptibility assay, patient 780 (FIG. 8B)", "type": "cell-based, HIV", "method": "Phenotypic Drug Susceptibility and Resistance Profile: Patients 780. This is a second example of the third pattern of NNRTI susceptibility/resistance.\n(§1) Transfections were performed using a calcium-phosphate precipitation procedure. […] Cell lysates were assayed for luciferase activity (FIG. 3). […] The drug inhibition curves are shown in (FIG. 3)."}, "[2]": {"tested_on": "RTV-1058 clone 4 (RT K103N, Y188L)", "assay": "Phenotypic susceptibility assay, RTV-1058 clone 4", "type": "cell-based, HIV-1", "method": "as §1"}, "[3]": {"tested_on": "RTV-1058 clone 10 (RT L100I, K103N, Y188L)", "assay": "Phenotypic susceptibility assay, RTV-1058 clone 10", "type": "cell-based, HIV-1", "method": "as §1"}, "[4]": {"tested_on": "HIV-1 reverse transcriptase P225H plus K103N, Y181C or both", "assay": "Phenotypic susceptibility assay, P225H with K103N, Y181C or K103N+Y181C", "type": "cell-based", "details": "P225H added to K103N, Y181C or K103N+Y181C versus corresponding RTV lacking P225H", "method": "as §1\nResistance test vectors were constructed containing the P225H mutation alone and in combination with other known drug resistance mutations (K103N, Y181C) known to modulate the HIV susceptibility to NNRTIs. […] (Sakar G and Sommar S S (1994) Biotechniques 8(4), 404-407). […] The P225H mutation was also introduced into a RTV containing additional mutations at K103N, Y181C or both (K103N+Y181C)."}, "[5]": {"tested_on": "RTV-644 patient virus (RT K101E, G190S)", "assay": "Phenotypic susceptibility assay, RTV-644 (patient 97-644 / 98-644)", "type": "cell-based, HIV-1", "details": "for decrease in susceptibility: RTV-644 patient virus; for change in susceptibility / resistance: RTV-644 patient virus compared to reference virus", "method": "(§2) Resistance tests were carried out with resistance test vectors using two host cell types. Resistance test vector viral particles were produced by a first host cell (the resistance test vector host cell) that was prepared by transfecting a packaging host cell with the resistance test vector and the packaging expression vector. The resistance test vector viral particles were then used to infect a second host cell (the target host cell) in which the expression of the indicator gene is measured.\n(§3) The resistance test vectors containing a functional luciferase gene cassette were constructed and host cells were transfected with the resistance test vector DNA. The resistant test vectors contained patient-derived reverse transcriptase and protease sequences that were either susceptible or resistant to the antiretroviral agents, such as nucleoside reverse transcriptase inhibitors, non-nucleoside reverse transcriptase inhibitors and protease inhibitors. The resistance test vector viral particles produced by transfecting the resistance test vector DNA into host cells, either in the presence or absence of protease inhibitors, were used to infect target host cells grown either in the absence of NRTI or NNRTI or in the presence of increasing concentrations of the drug. The amount of luciferase activity produced in infected target host cells in the presence of drug was compared to the amount of luciferase produced in infected target host cells in the absence of drug. Drug resistance was measured as the amount of drug required to inhibit by 50% the luciferase activity detected in the absence of drug (inhibitory concentration 50%, IC50). The IC50 values were determined by plotting percent drug inhibition vs. log10 drug concentration.\nHost cells were seeded in 10-cm-diameter dishes and were transfected several days after plating with resistance test vector plasmid DNA and the envelope expression vector. Transfections were performed using a calcium-phosphate precipitation procedure. The cell culture media containing the DNA precipitate was replaced with fresh medium, from one to 24 hours, after transfection. […] HIV capsid protein (p24) levels in the harvested cell culture media were determined by an EIA method as described by the manufacturer (SIAC; Frederick, Md.). […] The inhibitory effect of the drug was determined using the following equation: % luciferase inhibition=1-(RLUluc[drug]÷RLUluc)×100 where RLUluc [drug] is the relative light unit of luciferase activity in infected cells in the presence of drug and RLUluc is the Relative Light Unit of luciferase activity in infected cells in the absence of drug. […]"}, "[6]": {"tested_on": "RTV-955 patient virus (RT K101E, K103N, Y181C, G190A mixtures)", "assay": "Phenotypic susceptibility assay, RTV-955 (patient 98-955)", "type": "cell-based, HIV-1", "method": "as §1\nThis patient had been previously treated with nelfinavir (a PR1)."}, "[7]": {"tested_on": "Tyr181Cys (Y181C) mutation of HIV RT", "details": "cited from earlier work"}, "[8]": {"tested_on": "HIV-1 reverse transcriptase L100I + K103N + Y188L (L100I-K103N-Y188L-RTV)", "assay": "Phenotypic susceptibility assay, site directed mutant L100I-K103N-Y188L-RTV", "type": "cell-based", "details": ">1 loss of susceptibility", "method": "as §2\n(§4) The resistance test vectors containing a functional luciferase gene cassette were constructed and host cells were transfected with the resistance test vector DNA. The resistant test vectors contained patient-derived reverse transcriptase and protease sequences that were either susceptible or resistant to the antiretroviral agents, such as nucleoside reverse transcriptase inhibitors, non-nucleoside reverse transcriptase inhibitors and protease inhibitors. […] The IC50 values were determined by plotting percent drug inhibition vs. log10 drug concentration.\n(§5) Host cells were seeded in 10-cm-diameter dishes and were transfected several days after plating with resistance test vector plasmid DNA and the envelope expression vector. […] HIV capsid protein (p24) levels in the harvested cell culture media were determined by an EIA method as described by the manufacturer (SIAC; Frederick, Md.). […]"}, "[9]": {"tested_on": "HIV-1 reverse transcriptase L100I + K103N (L100I-K103N-RTV)", "assay": "Phenotypic susceptibility assay, site directed mutant L100I-K103N-RTV", "type": "cell-based", "details": ">1 loss of susceptibility", "method": "as §2, §4, §5"}, "[10]": {"tested_on": "HIV-1 reverse transcriptase Y188H (Y188H-RTV)", "details": ">1 loss of susceptibility", "method": "as §2, §4, §5"}, "[11]": {"tested_on": "RTV-268 patient virus (RT P236L with M41L, D67N, M184V, L210W, T215Y, K219Q)", "assay": "Phenotypic susceptibility assay, RTV-268 (patient 97-268)", "type": "cell-based, HIV-1", "details": "RTV-268 patient virus compared to reference virus", "method": "as §2, §3\nHost cells were seeded in 10-cm-diameter dishes and were transfected several days after plating with resistance test vector plasmid DNA and the envelope expression vector. Transfections were performed using a calcium-phosphate precipitation procedure. The cell culture media containing the DNA precipitate was replaced with fresh medium, from one to 24 hours, after transfection. Cell culture media containing resistance test vector viral particles was harvested one to four days after transfection and was passed through a […] filter before being stored at −80° C. HIV capsid protein (p24) levels in the harvested cell culture media were determined by an EIA method as described by the manufacturer (SIAC; Frederick, Md.). Before infection, target cells (293 and 293/T) were plated in cell culture media. Control infections were performed using cell culture media from mock transfections (no DNA) or transfections containing the resistance test vector plasmid DNA without the envelope expression plasmid. One to three or more days after infection the media was removed and cell lysis buffer (Promega) was added to each well. […] The inhibitory effect of the drug was determined using the following equation: % luciferase inhibition=1-(RLUluc[drug]÷RLUluc)×100 where RLUluc [drug] is the relative light unit of luciferase activity in infected cells in the presence of drug and RLUluc is the Relative Light Unit of luciferase activity in infected cells in the absence of drug. IC50 values were obtained from the sigmoidal curves that were generated from the data by plotting the percent inhibition of luciferase activity vs. the log10 drug concentration.\nA resistance test vector was constructed as described in Example 1 from a patient sample designated 97-268. […] Isolation of viral RNA and RT/PCR was used to generate a patient derived segment that comprised viral sequences coding for all of PR and amino acids 1-313 of RT. The patient derived segment was inserted into a indicator gene viral vector to generate a resistance test vector designated RTV-268."}, "[12]": {"tested_on": "RTV-964 patient virus (RT Y181I)", "assay": "Phenotypic susceptibility assay, RTV-964 (patient 98-964)", "type": "cell-based, HIV-1", "method": "as §1"}, "[13]": {"tested_on": "HIV-1 reverse transcriptase K103N + Y188L (K103N-Y188L-RTV)", "assay": "Phenotypic susceptibility assay, site directed mutant K103N-Y188L-RTV", "type": "cell-based", "details": ">1 loss of susceptibility", "method": "as §2, §4, §5"}}, "note": "Entries after “also recorded” stand apart in the source; their conditions may differ.", "data": [{"smiles": "CC(C)Nc1cccnc1N1CCN(C(=O)c2cc3cc(NS(C)(=O)=O)ccc3[nH]2)CC1", "note": "[delavirdine]", "values": [{"measurement": "change in susceptibility", "setting": "[1]", "result": "reduced susceptibility"}, {"measurement": "loss of susceptibility", "setting": "[2]", "result": 85, "unit": "fold"}, {"measurement": "loss of susceptibility", "setting": "[3]", "result": "greater than 250 fold"}, {"measurement": "change in susceptibility", "setting": "[4]", "result": "more susceptible to inhibition; also recorded: increase; also recorded: decreases the amount of delavirdine resistance"}, {"measurement": "decrease in susceptibility", "setting": "[5]", "result": 2.5, "unit": "fold"}, {"measurement": "change in susceptibility / resistance", "setting": "[5]", "result": "little or no resistance"}, {"measurement": "decrease in susceptibility", "setting": "[6]", "result": 4, "unit": "fold"}]}, {"smiles": "Cc1ccnc2c1NC(=O)c1cccnc1N2C1CC1", "note": "[nevirapine]", "values": [{"measurement": "change in susceptibility", "setting": "[1]", "result": "reduced susceptibility"}, {"measurement": "loss of susceptibility", "setting": "[2]", "result": "greater than 800 fold"}, {"measurement": "loss of susceptibility", "setting": "[3]", "result": "greater than 800 fold"}, {"measurement": "reduction in sensitivity", "setting": "[7]", "result": 100, "unit": "fold"}, {"measurement": "fold change in susceptibility compared to wild type control RTV", "setting": "[8]", "result": "greater than 800 fold"}, {"measurement": "fold change in susceptibility compared to wild type control RTV", "setting": "[9]", "result": 70, "unit": "fold"}, {"measurement": "fold change in susceptibility compared to wild type control RTV", "setting": "[10]", "result": 3.5, "unit": "fold"}, {"measurement": "change in susceptibility", "setting": "[4]", "result": "did not significantly change; also recorded: little or no change; also recorded: does not decrease the amount of nevirapine resistance"}, {"measurement": "change in susceptibility / resistance", "setting": "[11]", "result": "no change; also recorded: the same as wild type"}, {"measurement": "decrease in susceptibility", "setting": "[12]", "result": 750, "unit": "fold"}, {"measurement": "decrease in susceptibility", "setting": "[5]", "result": 600, "unit": "fold"}, {"measurement": "change in susceptibility / resistance", "setting": "[5]", "result": "resistant; also recorded: large reduction in susceptibility"}, {"measurement": "fold change in susceptibility compared to wild type control RTV", "setting": "[13]", "result": "greater than 800 fold"}, {"measurement": "decrease in susceptibility", "setting": "[6]", "result": 530, "unit": "fold"}]}]}
